Here are results for three molecules from patent US5432172A, “Biological applications of alkaloids derived from the tunicate Eudistoma sp” (The Research Foundation of State University of New York, priority 1993, dated 1995).

Each structure is given as a SMILES string. Entries after “also recorded” stand apart in the source; their conditions may differ.

The subject of data set [1] is neuroblastoma N1E-115 cells. Put plainly: Growth and morphological differentiation of mouse neuroblastoma N1E-115 cells. The method, then: A,B: Untreated cells, 3 (A) and 8 (B) days after subculture. C,D: Cells grown for 3 (C) and 8 (D) days with 12.8 μM Debromoshermilamine. E,F: Cells grown for 7 days with Isosegoline A (39 μM) and Norsegoline (16.3 μM), respectively.
A,B: Untreated cells 3 (A) and 6 (B) days after subculture. C,D: Cells grown for 3 (C) and 6 (D) days with 50 μM forskolin. E,F: Cells grown for 3 (E) and 6 (F) days with 39 μM Segoline A. G,H: Cells grown for 3 (G) and 6 (H) days with 0.14 μM Eilatin.
Cells were grown for six days in the absence of drugs (A), or in the presence of: 10 μM 4-methylpyrido[2,3,4-kl]acridine (B), 4 μM pyrido[2,3,4-kl]acridine (C), 0.08 μM Eilatin (D), 75 μM forskolin (E).
The inventors chose the neuroblastoma N1E-115 cells because these tumor-derived cells can be induced to express characteristic neuronal properties by a variety of procedures see Spector, "Electrophysiology of clonal nerve cell lines. In: Excitable Cells in Tissue Culture", Nelson et al. eds., Plenum, New York 247-277 (1981) and can serve as a useful experimental system in which to explore the effects of the Eudistoma alkaloids on the biological properties of both cancer cells and neuronal cells.
The N1E-115 cells were exposed to various concentrations of the six (6) natural products shown in FIG. 1, and of the two synthetic pyridoacridines shown in Scheme III of FIG. 2. […] A,B: Untreated cells, 3 (A) and 8 (B) days after subculture. C,D: Cells grown for 3 (C) and (8) days with 12.8 μM Debromoshermilamine. E,F: Cells grown for 7 days with Isosegoline A (39 μM) and Norsegoline (16.3 μM), respectively. FIG. 5 illustrates the appearance of N1E-115 cells 6 days after replating in the absence (A) and in the presence of 10 μM 4-methylpyrido[2,3,4-kl]acridine (B), or 4 μM pyrido[2,3,4-kl]acridine.

Data set [2] deals with type II cAMP-dependent protein kinase. To be noted: literature; cited from earlier work.
For a further data set, the system named is pyruvate kinase. Put plainly: Pyruvate kinase activity in cultured rat hepatoma FAO cells. It counts as cell-based. To be noted: 100 μM CPT-cAMP, 1 h; control 0.14; read-out: Km for the substrate phosphoenolpyruvate (PEP). The method, then:
FIG. 11 is a graph showing the effects of the Eudistoma alkaloids on pyruvate kinase activity in cultured rat hepatoma FAO cells. Enzyme activity v/Vmax was assayed as described in Example IV in partially purified extracts from cells incubated for 1 h in the absence ( ) or presence of 100 μM CPT-cAMP (.cndot.) and 26 μM segoline A ( ) as a function of substrate concentrations (phosphoenolpyruvate, PEP).
1. Activity of pyruvate kinase--a key glycolytic enzyme whose activity is inhibited by cAMP-dependent phosphorylation.
FIG. 11 is a graph showing the effects of the Eudistoma alkaloids on pyruvate kinase activity in cultured rat hepatoma FAO cells. Enzyme activity v/Vmax was assayed in partially purified extracts from cells incubated for 1 h in the absence (squares) or presence of 100 μM 8-(4-chlorophenylthio) cyclic AMP (CPT-cAMP)-CPT-cAMP (circles) and 26 μM Segoline A (triangles) as a function of substrate concentrations (phosphoenolpyruvate, PEP).

Data set [3] deals with normal hamster fibroblast NIL8 cell line. Put plainly: Growth and morphology of normal NIL8 fibroblast cells. It counts as cell-based. The settings on record: 0.08 μM Eilatin, single application.
A further data set relates to NIL8-HSV cells. The method, then:
A-D Cells grown for 6 days in the absence of drugs (A), or in the presence of 75 μM forskolin (B), 13 μM Segoline B (C) or 0.21 μM Eilatin (D). E and F show the appearance of the Segoline B- and Eilatin-treated cells, 7 days after removal of the toxins.
A: F-actin staining in control cells. B: F-actin staining in a cell treated for 4 days with 13 μM Segoline B.
Cells were grown for 6 days in the absence of drugs (A), or in the presence of 10 μM 4-methylpyrido[2,3,4-kl]acridine (B), 4 μM pyrido[2,3,4-kl]acridine (C), 0.08 μM eilatin (D), or 75 μM forskolin (E).
As reviewed by Willingham, Int. Rev. […] Transformed fibroblasts which display altered growth patterns and aberrant morphologies respond to cAMP elevation by restoration of many normal aspects of growth and morphology, a phenomenon known as "cAMP-mediated reverse transformation" as described by Lockwood et al., J. Cell. Biochem., 33, 237-255 (1987).
A-D show cells grown for 6 days in the absence of drugs (A), or in the presence of 75 μM forskolin (B), 13 μM Segoline B (C) or 0.21 μM Eilatin (D). E and F show the appearance of the Segoline B- and Eilatin-treated cells, 7 days after removal of the toxins.
A: F-actin staining in control cells.

Data set [4] deals with normal hamster fibroblast NIL8 cell line. Put plainly: Growth and morphology of normal NIL8 fibroblast cells. It counts as cell-based. The method, then:
Cells were grown for 5 days in the absence of drugs (A), and in the presence of 25 μM forskolin (B), 1.4 μM Eilatin (C), or 12.8 μM Debromoshermilamine (D). […]
As illustrated, a single application of 1.4 μM Eilatin or 12.8 μM Debromoshermilamine to NIL8 cells produced effects which are strikingly similar to those obtained by chronically treating time cells with agents that elevate or mimic cAMP. […] This predilection towards cancer cells is a very desirable property in developing potential drugs for the treatment of cancer.

[5] abbreviates: 1.4 μM Eilatin, 5 days, single application.

Take `Nc1ncnc2c1nc(Cl)n2[C@@H]1O[C@@H]2COP(=O)(O)O[C@H]2[C@H]1O` [8-chloro-cAMP, reference compound]: the “effects on cell growth and differentiation” value in data set [1] (8-chloro cAMP 250 μM, single application) is “transient effects”. Moreover, the “preferential binding to type II cAMP-dependent protein kinase” value in data set [2] is “bind preferentially to type II cAMP-dependent protein kinase”.

As to `Nc1ncnc2c1nc(Sc1ccc(Cl)cc1)n2[C@@H]1O[C@@H]2COP(=O)(O)O[C@H]2[C@H]1O` [CPT-cAMP, 8-(4-chlorophenylthio) cyclic AMP, reference compound], the Km (commonly the substrate concentration at which the rate is half of its maximum) with pyruvate kinase came out at 520 µM. The “effects on cell growth and differentiation” value in data set [1] (CPT-cAMP 250-500 μM, single application) was “transient effects”. Also, the “preferential binding to type II cAMP-dependent protein kinase” value in data set [2] is on record as “bind preferentially to type II cAMP-dependent protein kinase”.

With `c1ccc2c(c1)nc1c3nc4ccccc4c4ccnc(c5nccc2c51)c43` [Eilatin], in data set [3], the “effect on NIL8 cells” value is reported as “no effects on NIL8 cells; also recorded: did not exert any effect on the normal NIL8 cells”. For the same molecule, the “cytotoxicity to transformed cells versus normal cells” value with NIL8-HSV cells is “more cytotoxic to transformed cells than to normal cells”. The “reverse transformation in NIL8-HSV cells” value in the data set with NIL8-HSV cells (0.08 μM Eilatin) is reported as “reverse transformation in NIL8-HSV cells”. Moreover, in the data set on NIL8-HSV cells (0.21 μM Eilatin, one application), the “reversal of the effects of transformation” value is “permanently reverse the effects of transformation”. Besides, the “effects on cell shape and actin organization” value in the data set on NIL8-HSV cells (0.21 μM Eilatin, FIG. 8D) was “became large and flat and showed the typical network of stress fibers”. Further, the “growth and morphology after drug removal” value with NIL8-HSV cells (7 days after removal of 0.21 μM Eilatin) was “maintained their reduced growth and flattened morphology”. Besides, the “differentiation in N1E-115 cells” value in data set [1] (0.08 μM Eilatin) is “produced differentiation in N1E-115 cells”. For the same molecule, the “effect on cell division and morphological differentiation” value in data set [1] (0.14 μM Eilatin, 3 days, single application) is “inhibited cell division and induced morphological differentiation”. For the same molecule, the “long-term effect on cell division” value in data set [1] (0.14 μM Eilatin, 6 days, single application) is recorded as “cell division is completely blocked”. Also, the “toxicity to transformed cells” value in data set [1] (1.4 μM Eilatin, N1E-115 ("both the transformed cell lines")) is “toxic to both the transformed cell lines”. The “range of effective concentrations that inhibited cell proliferation and induced morphological differentiation” value in data set [1] (N1E-115 cells, below range no noticeable effect, above range cytotoxic) was 0.05-0.5 μM. Besides, the “effects on cell appearance” value in data set [1] (N1E-115 cells, morphology) is recorded as “flattened cell bodies as well as numerous long neurites”. Further, the “potency relative to the other five naturally occurring compounds and the synthetic pyridoacridines” value in data set [1] (actions at the cellular level) stood at 100 times. Also, in data set [1] (summary, cells tested in the present invention), the “most effective concentration for the cells tested” value lay in the range of 0.05 to 0.5 µM. In data set [4] (setting [5]), the “effect on cell shape of NIL8 cells” value is “more elongated” and the “effect on growth of NIL8 cells” value is given as “growth was inhibited”. In addition, in data set [4] (at concentrations that induce differentiation and reverse transformation of transformed cells), the “effect on normal cells” value is “no effect on normal cells”.
